Values of other authors in patent US20220273701A1, “TREATMENT FOR REDUCING ADVERSE EVENTS INCLUDING CHEMOTHERAPY DISCOMFORT AND OTHER CONDITIONS” (priority 2019, published 2022).

Compound	pKa of Acid (or pH of 1:1 mixture)
O=S(=O)(O)CCCNC1CCCCC1 [N-cyclohexyl-3-aminopropanesulfonic acid]	10.4
Lysine anion [Lysine anion/Lysine dianion]	10.79
Boric Acid [Boric Acid/Borate]	9.0
O=S(=O)(O)CCNC1CCCCC1 [N-Cyclohexyl-2-aminoethanesulfonic acid]	9.3
N[C@@H](CS)C(=O)O [Cysteine/Cysteine anion, Cysteine]	10.78
CC[C@H](C)[C@H](N)C(=O)O [Isoleucine/Isoleucine anion, Isoleucine]	9.60
Arginine anion [Arginine anion/Arginine dianion]	12.48
O=C(O)[C@@H]1CCCN1 [Proline/Proline anion, Proline]	10.60
NCC(=O)O [Glycine/Glycine anion, Glycine]	9.60
Tris(hydroxymethyl)aminomethane	8.2
C[C@H](N)C(=O)O [Alanine/Alanine anion, Alanine]	9.69
O=S(=O)(O)CCCNC(CO)(CO)CO [tris(hydroxymethyl)methylamino]propanesulfonic acid]	8.55
CC(C)[C@H](N)C(=O)O [Valine/Valine anion, Valine]	9.62
Tyrosine anion [Tyrosine anion/Tyrosine dianion]	10.07
